Patent US20100015058A1, “RADIOLABELED BBN-RGD HETERODIMERS FOR CANCER TARGETING” (STANFORD UNIVERSITY, priority 2008, published 2010)

Key:
[1] = MicroPET blood and normal organ uptake in T47D and MDA-MB-435 tumor-bearing nude mice; settings: average of eight mice; for tissue uptake at 1 h / tissue uptake at 2 h / tissue uptake at 4 h / tissue uptake at 24 h / tissue uptake at 0.5 h: nude, mouse, iv, total radioactivity
From the text: The T47D or MDA-MB435 tumor uptake is expressed as the average of each tracer in four mice, while the normal organ uptake is expressed as the average of each tracer in eight mice (four T47D tumor-bearing mice and four MDA-MB-435 tumor-bearing mice per tracer).

[2] = tested on: T47D tumor cells; assay: Cell uptake assay on T47D tumor cells; assay type: cell-based, human; settings: 120 min, 37° C., n=3
Experimental: The cells suspensions were collected and measured in a y counter (Packard, Meriden, Conn.). The cell uptake was expressed as the percent added dose (% AD) after decay correction. Experiments were performed twice with triplicate wells.

[3] = in vivo; settings: mouse, in vivo, iv, total radioactivity
[4] = MicroPET of T47D tumor-bearing mice; assay type: in vivo; settings: female, nude, mouse, T47D tumor, iv, total radioactivity, orthotopic model
From the text: The MDA-MB-231, MDA-MB468, BT474, BT-20, T47D, MCF-7 and MDA-MB435 human breast cancer cell lines were all obtained from the American Type Culture Collection (ATCC) and maintained under standard conditions according to ATCC. The MDA-MB435 tumor model was established by orthotopic injections of 5×10^6 cells into the right mammary fat pad of female athymic nude mice. For T47D tumor model establishment, the female nude mice were first subcutaneously implanted with 60-day release 17β-estradiol pellets (Innovative Research of America, Sarasota, Fla.) in the left neck. One day after the estradiol implantation, 1×10^7 T47D cells were orthotopically injected into the right mammary fat pad of the nude mice. The mice were subjected to microPET studies when the tumor volume reached 100-300 mm^3 (2-3 weeks for MDA-MB-435, and 4-5 wk for T47D).
(§1) Quantification of tumor and major organ activity accumulation in the microPET scans was realized by measuring the regions of interest (ROIs) that encompassing the entire organ on the coronal images.

[5] = Small-animal PET of MDA-MB-435 tumor-bearing mice; settings: female, athymic nude, mouse, in vivo, iv, total radioactivity
Experimental: The MDA-MB435 tumor model was established by orthotopic injections of 5×10^6 cells into the right mammary fat pad of female athymic nude mice. […] The mice were subjected to microPET studies when the tumor volume reached 100-300 mm^3 (2-3 weeks for MDA-MB-435, and 4-5 wk for T47D).
For static PET, 5-min scans were acquired at 30 min, 1 h, and 2 h after injection. For dynamic PET, 30-min scans (1×30 s, 4×1 min, 1×1.5 min, 4×2 min, 5×3 min; total 15 frames) were started 1 min after injection, and two 5-min static PET images were also acquired at 1 h and 2 h after injection. The images were reconstructed using a two-dimensional ordered subsets expectation maximum (OSEM) algorithm and no correction was applied for attenuation or scatter. […] For each small-animal PET scan, regions of interest (ROIs) were drawn over the tumor, normal tissue, and major organs using vendor software ASI Pro 5.2.4.0 on decay-corrected whole-body coronal images. The maximum radioactivity concentrations (accumulation) within a tumor or an organ were obtained from mean pixel values within the multiple ROI volume, and were converted to megabecquerels per milliliter per minute using a conversion factor. These values were then divided by the administered activity to obtain (assuming a tissue density of 1 g/ml) an image ROI-derived percent injected dose per gram (% ID/g).
as §1

[6] = male, athymic nude, 5.5 MBq, Tumor uptake
[7] = male, athymic nude, 3.7 MBq, PC-3 tumor uptake
[8] = male, athymic nude, 3.7 MBq, PC-3 tumor uptake, dynamic scan
[9] = male, athymic nude, 3.7 MBq, PC-3 tumor uptake, static scan after dynamic scan

## CSCC[C@H](NC(=O)[C@H](CC(C)C)NC(=O)[C@H](Cc1c[nH]cn1)NC(=O)CNC(=O)[C@@H](NC(=O)[C@H](C)NC(=O)[C@H](Cc1c[nH]c2ccccc12)NC(=O)[C@H](CCC(N)=O)NC(=O)CCCCCNC(=O)CC[C@H](NC(=S)Nc1ccc(C[C@H]2CN(CC(=O)O)CCN(CC(=O)O)CCN2CC(=O)O)cc1)C(=O)NCCCC[C@@H]1NC(=O)[C@@H](Cc2ccc(O)cc2)NC(=O)[C@H](CC(=O)O)NC(=O)CNC(=O)[C@H](CCCNC(=N)N)NC1=O)C(C)C)C(N)=O [^64Cu-NOTA-RGD-BBN, metal not drawn]
[1]; 0.5 h
  Blood uptake: 1.40 ± 0.34 % ID/g
  Kidney uptake: 5.29 ± 0.58 % ID/g
  Liver uptake: 4.82 ± 1.34 % ID/g
  Muscle uptake: 0.91 ± 0.27 % ID/g
[1]; 1 h
  Kidney uptake: 4.32 ± 0.55 % ID/g
  Liver uptake: 4.05 ± 1.12 % ID/g
  Muscle uptake: 0.75 ± 0.12 % ID/g
[1]; 2 h
  Kidney uptake: 3.28±0.99 % ID/g
  Liver uptake: 3.22 ± 0.97 % ID/g
  Muscle uptake: 0.56 ± 0.33 % ID/g
[1]; blood, Blood uptake, 1 h
  tissue uptake at 1 h: 1.01 ± 0.21 %ID/g
[1]; blood, Blood uptake, 2 h
  tissue uptake at 2 h: 0.89 ± 0.23 %ID/g
[1]; blood, Blood uptake
  tissue uptake at 4 h: 0.54 ± 0.2 %ID/g
  tissue uptake at 24 h: 0.36 ± 0.04 %ID/g
[1]; kidney, Kidney uptake
  tissue uptake at 4 h: 2.95 ± 0.26 %ID/g
  tissue uptake at 24 h: 2.1 ± 0.72 %ID/g
[1]; liver, Liver uptake
  tissue uptake at 4 h: 2.76 ± 0.81 %ID/g
  tissue uptake at 24 h: 2.24 ± 0.36 %ID/g
[1]; muscle, Muscle uptake
  tissue uptake at 4 h: 0.4 ± 0.07 %ID/g
  tissue uptake at 24 h: 0.21 ± 0.04 %ID/g
[2]
  T47D cell uptake value: 5.30±0.53 % AD
[3]; male, athymic nude, 5.5 MBq, Blood uptake
  tissue uptake at 0.5 h: < 1 %ID/g
[3]; male, athymic nude, 5.5 MBq, PC-3 tumor uptake with BBN blocking
  tissue uptake at 1 h: 0.76 ± 0.36 %ID/g
[3]; male, athymic nude, 5.5 MBq, PC-3 tumor uptake with RGD and BBN blocking
  tissue uptake at 1 h: 0.54 ± 0.41 %ID/g
[3]; male, athymic nude, 5.5 MBq, PC-3 tumor uptake with RGD blocking
  tissue uptake at 1 h: 1.64 ± 0.77 %ID/g
[3]; [6]
  tissue uptake at 0.5 h: 3.06 ± 0.11 %ID/g
  tissue uptake at 1 h: 2.78 ± 0.56 %ID/g
  tissue uptake at 4 h: 2.21 ± 0.49 %ID/g
  tissue uptake at 20 h: 2.04 ± 0.35 %ID/g
  tissue uptake at 24 h: 2.04 ± 0.35 %ID/g
[3]; male, athymic nude, 5.5 MBq, liver uptake
  tissue uptake: 3.5 %ID/g
[3]; 5.5 MBq, Blood uptake
  tissue uptake at 1 h: 0.66 ± 0.15 %ID/g
  tissue uptake at 4 h: 0.49 ± 0.07 %ID/g
  tissue uptake at 20 h: 0.5 ± 0.15 %ID/g
[3]; 5.5 MBq, Kidney uptake
  tissue uptake at 0.5 h: 4.09 ± 0.81 %ID/g
  tissue uptake at 1 h: 3.06 ± 0.25 %ID/g
  tissue uptake at 4 h: 2.3 ± 0.41 %ID/g
  tissue uptake at 20 h: 1.87 ± 0.41 %ID/g
[3]; 5.5 MBq, Liver uptake
  tissue uptake at 0.5 h: 3.46 ± 0.26 %ID/g
  tissue uptake at 1 h: 2.8 ± 1.15 %ID/g
  tissue uptake at 4 h: 1.83 ± 0.68 %ID/g
  tissue uptake at 20 h: 0.98 ± 0.4 %ID/g
[4]; 4 h
  tissue uptake at 4 h: 1.94 ± 0.22 %ID/g
[4]; 24 h
  tissue uptake at 24 h: 1.38 ± 0.16 %ID/g
[5]; MDA-MB-435 tumor uptake
  tissue uptake at 4 h: 1.79 ± 0.2 %ID/g
  tissue uptake at 24 h: 1.29 ± 0.09 %ID/g

## CSCC[C@H](NC(=O)[C@H](CC(C)C)NC(=O)[C@H](Cc1c[nH]cn1)NC(=O)CNC(=O)[C@@H](NC(=O)[C@H](C)NC(=O)[C@H](Cc1c[nH]c2ccccc12)NC(=O)[C@H](CCC(N)=O)NC(=O)CCCCCNC(=O)CC[C@H](NC(=S)Nc1ccc(C[C@H]2CN(CC(=O)O)CCN(CC(=O)O)CCN2CC(=O)O)cc1)C(=O)NCCCC[C@@H]1NC(=O)[C@@H](Cc2ccc(O)cc2)NC(=O)[C@H](CC(=O)O)NC(=O)CNC(=O)[C@H](CCCNC(=N)N)NC1=O)C(C)C)C(N)=O [^68Ga-NOTA-RGD-BBN, metal not drawn]
[1]; 0.5 h
  Blood uptake: 2.91 ± 0.28 % ID/g
[1]; 1 h
  Blood uptake: 1.95 ± 0.47 % ID/g
[1]; 2 h
  Blood uptake: 1.06 ± 0.23 % ID/g
  Kidney uptake: 1.64±0.40 % ID/g
  Liver uptake: 1.60 ± 0.09 % ID/g
[1]; female, kidney, Kidney uptake, 2 h
  tissue uptake at 2 h: 1.64 ± 0.4 %ID/g
[1]; female, liver, Liver uptake, 0.5 h
  tissue uptake at 0.5 h: 2.68 ± 0.29 %ID/g
[1]; kidney, Kidney uptake, 0.5 h
  tissue uptake at 0.5 h: 4.39 ± 1.05 %ID/g
[1]; kidney, Kidney uptake, 1 h
  tissue uptake at 1 h: 3.96 ± 1.12 %ID/g
[1]; liver, Liver uptake, 1 h
  tissue uptake at 1 h: 2.08 ± 0.43 %ID/g
[1]; muscle, Muscle uptake, 0.5 h
  tissue uptake at 0.5 h: 1.33 ± 0.28 %ID/g
[1]; muscle, Muscle uptake, 1 h
  tissue uptake at 1 h: 1.18 ± 0.44 %ID/g
[1]; muscle, Muscle uptake, 2 h
  tissue uptake at 2 h: 0.78 ± 0.07 %ID/g
[2]
  T47D cell uptake value: 2.42±0.23 % AD
[3]; male, athymic nude, 10 mg/kg, PC-3 tumor uptake with RGD blocking, 1 h, 3.7 MBq, co-injected c(RGDyK) 10 mg/kg
  tissue uptake at 1 h: 2.08 ± 0.65 %ID/g
[3]; [7]
  tissue uptake at 0.5 h: 6.55 ± 0.83 %ID/g
  tissue uptake at 1 h: 5.26 ± 0.32 %ID/g
  tissue uptake at 2 h: 4.04 ± 0.28 %ID/g
[3]; [8]
  tissue uptake at 5 min: 5.56 %ID/g
  tissue uptake at 0.25 h: 6.68 %ID/g
  tissue uptake at 0.5 h: 6.7 %ID/g
[3]; [9]
  tissue uptake at 1 h: 4.47 %ID/g
  tissue uptake at 2 h: 3.75 %ID/g
[3]; male, athymic nude, 3.7 MBq, liver uptake (highest)
  tissue uptake at 0.5 h: ~2 %ID/g
[3]; male, athymic nude, PC-3 tumor uptake with BBN blocking, 1 h, 3.7 MBq, co-injected Aca-BBN(7-14) 15 mg/kg
  tissue uptake at 1 h: 1.61 ± 0.57 %ID/g
[3]; male, athymic nude, PC-3 tumor uptake with RGD+BBN blocking, 1 h, 3.7 MBq, co-injected RGD 10 mg/kg and BBN 15 mg/kg
  tissue uptake at 1 h: 0.42 ± 0.1 %ID/g
[4]; 0.5 h
  tissue uptake at 0.5 h: 3.91 ± 1.13 %ID/g
[4]; 1 h
  tissue uptake at 1 h: 2.78 ± 0.87 %ID/g
[4]; 2 h
  tissue uptake at 2 h: 2.42 ± 0.29 %ID/g
[5]; 3.7 MBq, MDA-MB435 tumor uptake
  tissue uptake at 1 h: 3.23 ± 0.86 %ID/g
[5]; MDA-MB-435 tumor uptake
  tissue uptake at 1 h: 2.24 ± 0.73 %ID/g
  tissue uptake at 2 h: 1.84 ± 0.72 %ID/g
